Test results published in patent US12371428B2 (Exelixis, Inc., priority 2019, dated 2025).

Experiments:
Format in all cases: cell-based
[1] = target: AXL (phospho-AXL, Gas6-stimulated A-172 glioblastoma cells) (Homo sapiens (Human), UniProt P30530); assay: AXL autophosphorylation ELISA in A-172 cells (Example E); conditions: cellular activity; AXL autophosphorylation ELISA in A-172 cells; read-out: Axl IC50
How it was run: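 Phospho-AXL was measured by ELISA in lysates of Gas6-stimulated A-172 cells, starved 24 h in serum-free medium and exposed 1 h to an 8-point compound dilution at 0.3% DMSO.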

[2] = target: KDR (phospho-KDR, VEGF165-stimulated HUVEC cells) (Homo sapiens (Human), UniProt P35968); assay: KDR autophosphorylation ELISA in HUVEC cells (Example G); conditions: cellular activity; KDR autophosphorylation ELISA in HUVEC cells
How it was run: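 Read-out: phospho-KDR in cell lysates by DuoSet IC ELISA, normalised between VEGF-stimulated DMSO wells (100%) and unstimulated wells (0%). Human endothelial cells were starved overnight in serum-free medium, exposed to compound for 1 h, and then pulsed with 100 ng/mL VEGF165 for 5 min.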

[3] = target: Mer (phospho-Mer, MERTK-transfected 293A cells) (Homo sapiens (Human), UniProt Q12866); assay: Mer autophosphorylation ELISA in transient transfected 293A cells (Example H); conditions: cellular activity; Mer autophosphorylation ELISA in transient transfected 293A cells
How it was run: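 MERTK-transfected 293A; 8-pt dose, 1 h, serum-free, 0.3% DMSO. Cold lysis with orthovanadate and protease/phosphatase inhibitors. Phospho-Mer by DuoSet IC ELISA vs phospho-Mer standard. IC50: 4-PL fit; DMSO = 100%, reference inhibitor = 0%.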

[4] = target: Met (phospho-Met, HGF-stimulated PC-3 prostate cancer cells) (Homo sapiens (Human), UniProt P08581); assay: Met autophosphorylation ELISA in PC-3 cells (Example F); conditions: cellular activity; Met autophosphorylation ELISA in PC-3 cells; read-out: c-Met IC50
How it was run: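 PC-3 cells, serum-starved 3 h, were treated with compounds (8-point dose curve, 0.3% DMSO final) for 1 h, then stimulated with 100 ng/mL recombinant human HGF for 10 min. Lysate phospho-Met (panTyr) was quantified by sandwich ELISA; IC50 from 4-parameter logistic fit.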

Sequence of AXL (phospho-AXL, Gas6-stimulated A-172 glioblastoma cells) (P30530 26-894): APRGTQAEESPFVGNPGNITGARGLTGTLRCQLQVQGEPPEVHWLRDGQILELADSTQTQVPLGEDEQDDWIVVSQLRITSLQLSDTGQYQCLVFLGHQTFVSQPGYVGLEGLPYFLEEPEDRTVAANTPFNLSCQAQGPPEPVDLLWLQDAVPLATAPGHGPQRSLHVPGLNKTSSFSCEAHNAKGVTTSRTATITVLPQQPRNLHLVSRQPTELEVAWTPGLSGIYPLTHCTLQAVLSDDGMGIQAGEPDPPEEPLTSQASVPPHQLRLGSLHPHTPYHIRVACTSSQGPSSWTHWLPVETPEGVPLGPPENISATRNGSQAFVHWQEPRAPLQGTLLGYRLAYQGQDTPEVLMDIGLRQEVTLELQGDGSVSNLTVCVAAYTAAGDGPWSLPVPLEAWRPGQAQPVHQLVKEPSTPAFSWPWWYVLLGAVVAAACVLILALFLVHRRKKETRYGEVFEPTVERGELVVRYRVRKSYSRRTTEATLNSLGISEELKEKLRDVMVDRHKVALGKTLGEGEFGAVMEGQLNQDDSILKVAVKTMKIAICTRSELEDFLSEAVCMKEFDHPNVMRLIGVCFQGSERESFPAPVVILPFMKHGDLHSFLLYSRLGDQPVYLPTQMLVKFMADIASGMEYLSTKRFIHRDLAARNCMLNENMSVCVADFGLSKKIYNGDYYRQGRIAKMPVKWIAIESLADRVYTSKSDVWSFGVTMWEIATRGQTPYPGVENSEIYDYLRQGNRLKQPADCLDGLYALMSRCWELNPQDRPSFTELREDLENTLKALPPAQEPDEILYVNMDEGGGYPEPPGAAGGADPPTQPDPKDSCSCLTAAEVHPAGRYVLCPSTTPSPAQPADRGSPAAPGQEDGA
Sequence of Met (phospho-Met, HGF-stimulated PC-3 prostate cancer cells) (P08581 25-1390): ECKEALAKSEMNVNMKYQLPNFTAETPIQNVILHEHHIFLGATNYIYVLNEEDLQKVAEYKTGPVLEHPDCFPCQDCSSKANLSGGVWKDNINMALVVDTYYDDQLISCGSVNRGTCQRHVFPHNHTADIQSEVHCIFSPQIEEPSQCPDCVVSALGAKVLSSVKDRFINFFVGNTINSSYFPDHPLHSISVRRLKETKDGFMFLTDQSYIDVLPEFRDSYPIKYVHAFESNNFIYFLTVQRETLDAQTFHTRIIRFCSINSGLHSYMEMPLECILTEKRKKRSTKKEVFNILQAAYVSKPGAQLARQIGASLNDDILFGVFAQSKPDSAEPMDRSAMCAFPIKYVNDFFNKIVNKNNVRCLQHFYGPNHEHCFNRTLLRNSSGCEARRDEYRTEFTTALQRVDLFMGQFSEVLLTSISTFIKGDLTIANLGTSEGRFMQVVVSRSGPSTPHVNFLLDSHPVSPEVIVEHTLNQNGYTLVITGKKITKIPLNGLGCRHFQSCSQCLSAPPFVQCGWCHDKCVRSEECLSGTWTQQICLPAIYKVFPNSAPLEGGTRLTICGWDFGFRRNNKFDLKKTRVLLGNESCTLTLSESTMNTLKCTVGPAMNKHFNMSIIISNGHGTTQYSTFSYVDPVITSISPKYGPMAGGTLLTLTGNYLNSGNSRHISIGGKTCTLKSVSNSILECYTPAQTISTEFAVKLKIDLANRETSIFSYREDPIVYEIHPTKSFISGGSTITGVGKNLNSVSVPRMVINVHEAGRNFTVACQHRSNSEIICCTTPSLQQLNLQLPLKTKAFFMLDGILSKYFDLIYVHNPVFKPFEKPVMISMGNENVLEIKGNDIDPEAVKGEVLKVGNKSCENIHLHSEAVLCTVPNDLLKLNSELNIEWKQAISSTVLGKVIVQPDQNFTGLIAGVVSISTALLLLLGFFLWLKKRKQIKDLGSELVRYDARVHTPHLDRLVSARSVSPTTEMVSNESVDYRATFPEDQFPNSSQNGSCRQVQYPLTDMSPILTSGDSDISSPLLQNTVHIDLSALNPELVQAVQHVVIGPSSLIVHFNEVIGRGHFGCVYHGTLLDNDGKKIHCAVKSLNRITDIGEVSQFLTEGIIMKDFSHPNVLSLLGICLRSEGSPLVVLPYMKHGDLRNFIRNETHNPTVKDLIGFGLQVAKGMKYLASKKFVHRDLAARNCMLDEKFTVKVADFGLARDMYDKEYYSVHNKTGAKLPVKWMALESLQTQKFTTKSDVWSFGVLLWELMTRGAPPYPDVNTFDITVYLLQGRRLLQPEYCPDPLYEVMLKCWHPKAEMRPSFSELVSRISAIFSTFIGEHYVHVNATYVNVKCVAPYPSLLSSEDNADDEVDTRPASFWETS
Sequence of KDR (phospho-KDR, VEGF165-stimulated HUVEC cells) (P35968 20-1356): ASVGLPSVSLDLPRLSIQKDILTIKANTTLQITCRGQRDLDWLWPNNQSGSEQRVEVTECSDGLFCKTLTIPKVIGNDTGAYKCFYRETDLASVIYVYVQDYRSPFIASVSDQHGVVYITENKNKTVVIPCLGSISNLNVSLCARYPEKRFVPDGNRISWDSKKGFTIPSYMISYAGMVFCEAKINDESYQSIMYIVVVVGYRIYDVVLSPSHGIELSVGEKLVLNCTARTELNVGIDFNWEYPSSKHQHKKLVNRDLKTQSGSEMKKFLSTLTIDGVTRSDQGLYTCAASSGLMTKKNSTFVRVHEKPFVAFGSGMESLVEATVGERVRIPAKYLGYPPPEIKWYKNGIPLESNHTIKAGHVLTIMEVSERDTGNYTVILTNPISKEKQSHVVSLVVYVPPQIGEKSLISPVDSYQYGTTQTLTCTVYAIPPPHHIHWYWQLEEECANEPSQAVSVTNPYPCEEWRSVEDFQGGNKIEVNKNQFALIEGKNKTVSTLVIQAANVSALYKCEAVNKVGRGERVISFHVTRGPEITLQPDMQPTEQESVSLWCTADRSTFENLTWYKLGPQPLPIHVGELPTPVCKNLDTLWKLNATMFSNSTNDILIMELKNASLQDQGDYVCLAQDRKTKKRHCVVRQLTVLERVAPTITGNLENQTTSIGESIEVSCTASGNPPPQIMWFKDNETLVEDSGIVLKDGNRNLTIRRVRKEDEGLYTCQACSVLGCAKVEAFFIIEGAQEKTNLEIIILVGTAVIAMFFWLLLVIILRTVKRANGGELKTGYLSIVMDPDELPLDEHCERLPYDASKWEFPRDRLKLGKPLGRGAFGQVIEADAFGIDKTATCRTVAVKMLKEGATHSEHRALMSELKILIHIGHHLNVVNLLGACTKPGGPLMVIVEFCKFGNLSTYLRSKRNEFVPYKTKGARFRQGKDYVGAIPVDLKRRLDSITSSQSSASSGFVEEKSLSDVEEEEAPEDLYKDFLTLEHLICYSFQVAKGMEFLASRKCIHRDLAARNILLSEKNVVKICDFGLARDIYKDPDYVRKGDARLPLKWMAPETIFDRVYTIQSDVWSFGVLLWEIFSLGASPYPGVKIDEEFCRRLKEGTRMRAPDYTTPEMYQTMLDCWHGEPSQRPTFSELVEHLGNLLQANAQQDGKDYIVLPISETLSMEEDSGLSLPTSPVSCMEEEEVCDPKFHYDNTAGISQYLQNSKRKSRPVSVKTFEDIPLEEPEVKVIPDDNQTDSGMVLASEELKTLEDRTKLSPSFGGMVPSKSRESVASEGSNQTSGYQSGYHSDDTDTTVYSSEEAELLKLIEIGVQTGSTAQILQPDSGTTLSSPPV
Sequence of Mer (phospho-Mer, MERTK-transfected 293A cells) (Q12866 21-999): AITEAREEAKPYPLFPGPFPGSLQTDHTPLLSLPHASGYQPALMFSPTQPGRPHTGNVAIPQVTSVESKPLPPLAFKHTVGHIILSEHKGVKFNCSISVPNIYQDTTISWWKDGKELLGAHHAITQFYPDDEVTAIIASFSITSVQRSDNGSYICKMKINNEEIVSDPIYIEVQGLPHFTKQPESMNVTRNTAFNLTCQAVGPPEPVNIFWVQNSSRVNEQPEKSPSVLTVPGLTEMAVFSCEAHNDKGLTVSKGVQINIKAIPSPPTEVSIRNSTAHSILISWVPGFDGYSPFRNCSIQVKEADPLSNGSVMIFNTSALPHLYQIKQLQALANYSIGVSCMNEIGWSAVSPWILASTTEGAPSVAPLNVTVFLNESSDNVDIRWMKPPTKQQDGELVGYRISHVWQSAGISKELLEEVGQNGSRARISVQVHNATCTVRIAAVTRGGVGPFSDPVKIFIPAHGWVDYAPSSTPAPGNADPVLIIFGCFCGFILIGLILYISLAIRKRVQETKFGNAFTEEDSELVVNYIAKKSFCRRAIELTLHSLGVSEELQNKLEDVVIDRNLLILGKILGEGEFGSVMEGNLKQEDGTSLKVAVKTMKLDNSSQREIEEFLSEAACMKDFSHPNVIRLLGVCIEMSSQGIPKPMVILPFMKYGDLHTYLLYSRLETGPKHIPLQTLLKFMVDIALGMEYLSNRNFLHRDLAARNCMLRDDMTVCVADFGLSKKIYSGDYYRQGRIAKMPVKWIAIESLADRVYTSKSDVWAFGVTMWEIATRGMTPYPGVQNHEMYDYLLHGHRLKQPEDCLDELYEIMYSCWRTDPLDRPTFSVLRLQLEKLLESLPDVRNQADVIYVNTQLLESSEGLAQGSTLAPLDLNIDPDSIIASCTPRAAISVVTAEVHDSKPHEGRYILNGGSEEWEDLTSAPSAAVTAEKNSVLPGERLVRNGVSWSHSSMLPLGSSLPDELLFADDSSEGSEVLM

IC50 [1] [nM] | IC50 [2] [nM] | IC50 [3] [nM] | IC50 [4] [nM] | SMILES
< 100 | 100 to 300 | < 100 | < 100 | COc1cnc2c(Oc3ccc(NC(=O)c4c(C)c(F)c(C)n(-c5ccc(F)cc5)c4=O)cc3F)ccnc2c1 [Compound 326, 5-Fluoro-N-[3-fluoro-4-[(7-methoxy-1,5-naphthyridin-4-yl)oxy]phenyl]-1-(4-fluorophenyl)-4,6-dimethyl-2-oxopyridine-3-carboxamide]
< 100 | < 100 | < 100 | < 100 | C=Cc1c(C)c(C(=O)Nc2ccc(Oc3ccnc4cc(OC)c(OC)nc34)c(F)c2)c(=O)n(-c2ccc(F)cc2)c1C [Compound 327, N-[4-[(6,7-Dimethoxy-1,5-naphthyridin-4-yl)oxy]-3-fluorophenyl]-5-ethenyl-1-(4-fluorophenyl)-4,6-dimethyl-2-oxopyridine-3-carboxamide]
< 100 | > 300 | < 100 | < 100 | C=Cc1c(C)c(C(=O)Nc2ccc(Oc3ccnc4cc(OC)c(OC)nc34)cc2)c(=O)n(-c2ccc(F)cc2)c1C [Compound 328, N-[4-[(6,7-Dimethoxy-1,5-naphthyridin-4-yl)oxy]phenyl]-5-ethenyl-1-(4-fluorophenyl)-4,6-dimethyl-2-oxopyridine-3-carboxamide]
< 100 | 100 to 300 | < 100 | < 100 | C=Cc1c(C)c(C(=O)Nc2ccc(Oc3ccnc4cc(OC)cnc34)c(F)c2)c(=O)n(-c2ccc(F)cc2)c1C [Compound 329, 5-ethenyl-N-[3-fluoro-4-[(7-methoxy-1,5-naphthyridin-4-yl)oxy]phenyl]-1-(4-fluorophenyl)-4,6-dimethyl-2-oxopyridine-3-carboxamide]
< 100 | > 300 | < 100 | < 100 | CCc1c(C)c(C(=O)Nc2ccc(Oc3ccnc4cc(OC)c(OC)nc34)c(F)c2)c(=O)n(-c2ccc(F)cc2)c1C [Compound 330, N-[4-[(6,7-dimethoxy-1,5-naphthyridin-4-yl)oxy]-3-fluorophenyl]-5-ethyl-1-(4-fluorophenyl)-4,6-dimethyl-2-oxopyridine-3-carboxamide]
< 100 | > 300 | < 100 | < 100 | CCc1c(C)c(C(=O)Nc2ccc(Oc3ccnc4cc(OC)c(OC)nc34)cc2)c(=O)n(-c2ccc(F)cc2)c1C [Compound 331, N-[4-[(6,7-dimethoxy-1,5-naphthyridin-4-yl)oxy]phenyl]-5-ethyl-1-(4-fluorophenyl)-4,6-dimethyl-2-oxopyridine-3-carboxamide]
< 100 | < 100 | < 100 | < 100 | COc1cc2nccc(Oc3ccc(NC(=O)c4c(C)ccn(-c5ccc(F)cc5C)c4=O)cc3)c2nc1OC [Compound 332, N-[4-[(6,7-dimethoxy-1,5-naphthyridin-4-yl)oxy]phenyl]-1-(4-fluoro-2-methylphenyl)-4-methyl-2-oxopyridine-3-carboxamide]
< 100 | 100 to 300 | < 100 | < 100 | CCOc1c(C(=O)Nc2ccc(Oc3ccnc4cc(OC)c(OC)nc34)c(F)c2)cnc(C)c1-c1ccc(F)cc1 [Compound 333, N-[4-[(6,7-dimethoxy-1,5-naphthyridin-4-yl)oxy]-3-fluorophenyl]-4-ethoxy-5-(4-fluorophenyl)-6-methylpyridine-3-carboxamide]
100 to 300 | < 100 | < 100 | < 100 | COc1cnc2c(Oc3ccc(NC(=O)c4c(C)ccn(-c5ccc(F)cc5C)c4=O)cc3F)ccnc2c1 [Compound 334, N-[3-fluoro-4-[(7-methoxy-1,5-naphthyridin-4-yl)oxy]phenyl]-1-(4-fluoro-2-methylphenyl)-4-methyl-2-oxopyridine-3-carboxamide]
< 100 | > 300 | < 100 | < 100 | CCc1c(C)c(C(=O)Nc2ccc(Oc3ccnc4cc(OC)cnc34)c(F)c2)c(=O)n(-c2ccc(F)cc2)c1C [Compound 335, 5-ethyl-N-[3-fluoro-4-[(7-methoxy-1,5-naphthyridin-4-yl)oxy]phenyl]-1-(4-fluorophenyl)-4,6-dimethyl-2-oxopyridine-3-carboxamide]
< 100 | < 100 | < 100 | < 100 | COCc1ccc(C(=O)Nc2ccc(Oc3ccnc4cc(OC)c(OC)nc34)c(F)c2)c(=O)n1-c1ccc(F)cc1 [Compound 358, N-[4-[(6,7-dimethoxy-1,5-naphthyridin-4-yl)oxy]-3-fluorophenyl]-1-(4-fluorophenyl)-6-(methoxymethyl)-2-oxopyridine-3-carboxamide]
< 100 | > 300 | < 100 | < 100 | COc1cc2nccc(Oc3ccc(NC(=O)c4cc(C(C)=O)cn(-c5ccc(F)cc5)c4=O)cc3)c2nc1OC [Compound 359, 5-acetyl-N-[4-[(6,7-dimethoxy-1,5-naphthyridin-4-yl)oxy]phenyl]-1-(4-fluorophenyl)-2-oxopyridine-3-carboxamide]
< 100 | > 300 | < 100 | 100 to 300 | COc1cc2nccc(Oc3ccc(NC(=O)c4c5c(cn(-c6ccc(F)cc6)c4=O)C(=O)CCC5)cc3)c2nc1OC [Compound 360, N-[4-[(6,7-dimethoxy-1,5-naphthyridin-4-yl)oxy]phenyl]-2-(4-fluorophenyl)-3,8-dioxo-6,7-dihydro-5H-isoquinoline-4-carboxamide]
< 100 | < 100 | < 100 | < 100 | COc1cc2nccc(Oc3ccc(NC(=O)c4cccn(-c5ccc(F)cc5)c4=O)cc3)c2nc1OC [Compound 361, N-[4-[(6,7-dimethoxy-1,5-naphthyridin-4-yl)oxy]phenyl]-1-(4-fluorophenyl)-2-oxopyridine-3-carboxamide]
< 100 | < 100 | < 100 | < 100 | COc1cc2nccc(Oc3ccc(NC(=O)c4cn5c(c(-c6ccc(F)cc6)c4=O)CCC5)cc3F)c2nc1OC [Compound 362, N-[4-[(6,7-dimethoxy-1,5-naphthyridin-4-yl)oxy]-3-fluorophenyl]-8-(4-fluorophenyl)-7-oxo-2,3-dihydro-1H-indolizine-6-carboxamide]
< 100 | < 100 | < 100 | < 100 | COc1cc2nccc(Oc3ccc(NC(=O)c4cn5c(c(-c6ccc(F)cc6)c4=O)CCCC5)cc3F)c2nc1OC [Compound 363, N-[4-[(6,7-dimethoxy-1,5-naphthyridin-4-yl)oxy]-3-fluorophenyl]-1-(4-fluorophenyl)-2-oxo-6,7,8,9-tetrahydroquinolizine-3-carboxamide]
< 100 | < 100 | < 100 | < 100 | CNc1nccc2c(Oc3ccc(NC(=O)c4cnc(C)c(-c5ccc(F)cc5)c4O)cc3)ccnc12 [Compound 387, 5-(4-fluorophenyl)-4-hydroxy-6-methyl-N-[4-[[8-(methylamino)-1,7-naphthyridin-4-yl]oxy]phenyl]pyridine-3-carboxamide]
< 100 | < 100 | < 100 | < 100 | COc1cc2nccc(Oc3ccc(NC(=O)c4cnc(C)c(-c5ccc(F)cc5F)c4O)cc3F)c2nc1OC [Compound 395, 5-(2,4-difluorophenyl)-N-[4-[(6,7-dimethoxy-1,5-naphthyridin-4-yl)oxy]-3-fluorophenyl]-4-hydroxy-6-methylpyridine-3-carboxamide]
< 100 | < 100 | < 100 | < 100 | COc1cc2nccc(Oc3ccc(NC(=O)c4cn(C)c(C)c(-c5ccc(F)cc5F)c4=O)cc3)c2nc1OC [Compound 396, 5-(2,4-difluorophenyl)-N-[4-[(6,7-dimethoxy-1,5-naphthyridin-4-yl)oxy]phenyl]-1,6-dimethyl-4-oxopyridine-3-carboxamide]
< 100 | < 100 | < 100 | < 100 | Cc1cc2nccc(Oc3ccc(NC(=O)c4c(C)nc(C)c(-c5ccc(F)cc5)c4O)cc3F)c2nc1F [Compound 445, N-[3-fluoro-4-[(6-fluoro-7-methyl-1,5-naphthyridin-4-yl)oxy]phenyl]-5-(4-fluorophenyl)-4-hydroxy-2,6-dimethylpyridine-3-carboxamide]
< 100 | < 100 | < 100 | < 100 | COCc1nc(C)c(-c2ccc(F)cc2)c(O)c1C(=O)Nc1ccc(Oc2ccnc3cc(C)c(F)nc23)c(F)c1 [Compound 446, N-[3-fluoro-4-[(6-fluoro-7-methyl-1,5-naphthyridin-4-yl)oxy]phenyl]-5-(4-fluorophenyl)-4-hydroxy-2-(methoxymethyl)-6-methylpyridine-3-carboxamide]
